# From ChEMBL document CHEMBL1142733, “Binding thermodynamics as a tool to investigate the mechanisms of drug-receptor interactions: thermodynamics of cytoplasmic steroid/nuclear receptors in comparison with membrane receptors” (J Med Chem, 2005)
# Assays:
# Progesterone receptor [1] = molecular target: T1, Progesterone receptor (Homo sapiens, UniProt P06401); assay: Dissociation constant for [3H]-ORG2058 at human progesterone receptor at 310K
# T1 sequence (P06401 whole entry): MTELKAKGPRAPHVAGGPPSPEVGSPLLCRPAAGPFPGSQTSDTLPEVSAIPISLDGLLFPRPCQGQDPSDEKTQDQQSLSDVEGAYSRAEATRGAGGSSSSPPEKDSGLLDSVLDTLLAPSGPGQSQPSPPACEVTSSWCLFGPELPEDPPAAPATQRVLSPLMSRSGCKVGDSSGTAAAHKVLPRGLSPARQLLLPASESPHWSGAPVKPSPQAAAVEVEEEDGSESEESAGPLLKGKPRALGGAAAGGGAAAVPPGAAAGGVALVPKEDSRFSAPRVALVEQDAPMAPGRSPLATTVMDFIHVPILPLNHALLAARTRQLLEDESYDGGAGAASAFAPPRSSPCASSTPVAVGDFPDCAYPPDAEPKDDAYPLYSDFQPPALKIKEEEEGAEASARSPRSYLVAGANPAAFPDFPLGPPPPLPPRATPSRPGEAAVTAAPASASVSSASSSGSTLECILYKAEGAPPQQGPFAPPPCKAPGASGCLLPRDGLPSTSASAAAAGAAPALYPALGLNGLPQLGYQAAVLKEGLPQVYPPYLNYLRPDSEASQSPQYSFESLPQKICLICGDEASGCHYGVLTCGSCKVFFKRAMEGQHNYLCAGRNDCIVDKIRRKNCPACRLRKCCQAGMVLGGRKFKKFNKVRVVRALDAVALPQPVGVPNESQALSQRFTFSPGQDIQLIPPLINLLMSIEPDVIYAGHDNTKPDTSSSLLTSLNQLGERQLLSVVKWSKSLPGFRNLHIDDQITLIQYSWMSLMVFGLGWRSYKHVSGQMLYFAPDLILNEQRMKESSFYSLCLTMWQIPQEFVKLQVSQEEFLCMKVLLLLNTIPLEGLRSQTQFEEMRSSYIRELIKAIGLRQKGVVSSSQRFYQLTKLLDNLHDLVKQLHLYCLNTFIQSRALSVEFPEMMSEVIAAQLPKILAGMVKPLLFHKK
# Progesterone receptor [2] = molecular target: T1, Progesterone receptor; assay: Dissociation constant for [3H]ORG2058 at human progesterone receptor at 293K
# Progesterone receptor [3] = molecular target: T1, Progesterone receptor; assay: Dissociation constant for [3H]ORG2058 at human progesterone receptor at 273 K
# Progesterone receptor [4] = molecular target: T1, Progesterone receptor; assay: Dissociation constant for [3H]-ORG2058 at human progesterone receptor at 283 K
# Progesterone receptor [5] = molecular target: T1, Progesterone receptor; assay: Dissociation constant for [3H]ORG2058 at human progesterone receptor at 308 K
# Progesterone receptor [6] = molecular target: T1, Progesterone receptor; assay: Dissociation constant for [3H]ORG2058 at human progesterone receptor at 298 K
# Progesterone receptor [7] = molecular target: T1, Progesterone receptor; assay: Dissociation constant for [3H]ORG2058 at human progesterone receptor at 303 K
# Progesterone receptor [8] = molecular target: T1, Progesterone receptor; assay: Dissociation constant for [3H]-ORG2058 at human progesterone receptor at 278 K
# Progesterone receptor [9] = molecular target: T1, Progesterone receptor; assay: Dissociation constant for [3H]ORG2058 at human progesterone receptor at 288 K
# [10] = molecular target: T2, Adenosine receptor A1 (Homo sapiens) (UniProt P30542)
# T2 sequence (whole entry): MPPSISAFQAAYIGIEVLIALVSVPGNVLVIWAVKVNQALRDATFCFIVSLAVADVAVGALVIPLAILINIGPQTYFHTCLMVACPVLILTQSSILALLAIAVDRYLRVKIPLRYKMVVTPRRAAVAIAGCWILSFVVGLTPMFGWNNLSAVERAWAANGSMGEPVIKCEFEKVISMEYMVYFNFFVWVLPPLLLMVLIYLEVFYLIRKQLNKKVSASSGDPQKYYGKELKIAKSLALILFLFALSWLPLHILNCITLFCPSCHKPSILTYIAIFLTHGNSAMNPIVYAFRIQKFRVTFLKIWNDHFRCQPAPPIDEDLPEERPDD
# Description: (§1) Dissociation constant against Adenosine A1 receptor
# Adenosine receptor A1 = molecular target: T3, Adenosine receptor A1 (Homo sapiens, UniProt P30542)
# T3 sequence (P30542 whole entry): T2 sequence (whole entry)
# Description: as §1
structure (smiles),measurement,setting,value
CC[C@@H]1C[C@H]2[C@@H]3CCC4=CC(=O)CC[C@@H]4[C@H]3CC[C@]2(C)[C@H]1C(=O)CO,Kd,Progesterone receptor [1],0.00542 µM
same,Kd,Progesterone receptor [2],0.00264 µM
same,Kd,Progesterone receptor [3],0.00328 µM
same,Kd,Progesterone receptor [4],0.00249 µM
same,Kd,Progesterone receptor [5],0.00456 µM
same,Kd,Progesterone receptor [6],0.00316 µM
same,Kd,Progesterone receptor [7],0.00413 µM
same,Kd,Progesterone receptor [8],0.0027 µM
same,Kd,Progesterone receptor [9],0.00232 µM
CC(C)Cn1c(=O)n(C)c(=O)c2nc[nH]c21,KD hydro,[10],19000 µM
CC(C)Cn1c(=O)n(C)c(=O)c2[nH]cnc21 [ISOBUTYLMETHYLXANTHINE],Kd,Adenosine receptor A1,5.9 µM
